Key:
[1] = system: Rat secreted gastric acid; assay: Antiulcer effect: rat secreted gastric acid inhibiting effect (pylorus ligature); type: in vivo, Male wistar strain rats; conditions: 100 μg/kg, s.c., immediately after pylorus ligature; for Inhibition percentage: gastric acid vs. control group; for Amount of gastric acid secreted: gastric juice sampled after 4 hours, solvent 73.6 ± 4.3
Procedure: Male wistar strain rats (weighing 250-280 g) were fasted for 18 hours and subjected to peritoneotomy under ether anesthesia for ligature of pylorus, and after 4 hours under abstinence from food and water, gastric juice was sampled. The gastric juice was centrifuged at 3000 rpm for 10 minutes, and then the amount, pH and acidity of the gastric juice were measured. The acidity was measured by titration bymeans of an automatic titrating device (produced by Toa Denpa Kogyo) with a 0.1 N NaOH to pH 7.0 and calculated according to the following formula: [formula]
The gastric juice secretion inhibition percentage was calculated according to the following formula: [formula] A: Amount of gastric acid excreted in Control group B: Amount of gastric acid excreted in Drug group.
The drugs to be tested were administrated subcutaneously immediately after pylorus ligature.

[2] = system: Human platelet aggregation; assay: Platelet aggregation inhibiting effect (human platelet rich plasma, ADP induced, in vitro); type: cell-based; conditions: 1 min, human PRP, ADP 2 to 10 μM, 37° C., one minute incubation, read-out: Platelet aggregation inhibiting ratio (IC50)
Procedure: Bloods were sampled from healthy male adults (22 to 34 years old) with no administration of drug for 2 weeks or more early in the morning when they were hungry. By use of an injector filled with a 3.8% sodium citrate solution, 50 ml of blood was sampled, immediately stirred by turning upside down and centrifuged at 200 G for 15 minutes. The supernatant was separated as the PRP (platelet rich plasma) and the residue was further subjected to centrifugation at 2000 G for 15 minutes, followed by recovery of the supernatant as PPP (poor platelet plasma) which ws provided for use in the experiment. 250 μl of PRP was placed in a cuvette, 5 μl of an 1% aqueous ethanol solution of the compound of the present invention or an 1% acqueous ethanol solution was added, and incubation was carried out at 37° C. for one minute. Then, an aggregation inducing agent (ADP) was added and the process of aggregation was recorded by Aggregometer (produced by Sienco Co.). As the concentration of ADP, the minimum concentrations of ADP (2 to 10 μM) to give the maximum aggregation for respective platelets were employed. The inhibition percentage of platelet aggregation was calculated by the following formula:
Inhibition percentage=(A-B/A)×100
A: Maximum aggregation ratio during addition of solvent ([…] aqueous ethanol solution)
B: Maximum aggregation ratio during addition of the compound of the present invention.
The platelet aggregation inhibiting effects of the compounds of the present invention are shown in terms of IC50 values in Table 1.

Row | Structure (SMILES) | IC50 [2] | Inhibition percentage [1] | Amount of gastric acid secreted [1]
1 | O=C(O)COCCC1=C[C@H]2C[C@@H](O)[C@H](C#CC(O)C3CCCCC3)[C@H]2C1 (stereo partly shown) [drawing 52] |  | 0% | 84.9 ± 10.8 mEq/l
2 | O=C(O)CCC=CC1=C[C@H]2C[C@@H](O)[C@H](C#CC(O)C3CCCCC3)[C@H]2C1 (stereo partly shown) [drawing 50] |  | 7.1% | 68.4 ± 10.1 mEq/l

Continued, in another order:

Row | IC50 [2] | Structure (SMILES) | Inhibition percentage [1] | Amount of gastric acid secreted [1]
3 | 10 nM | O=C(O)CCC=CC1=C[C@H]2C[C@@H](O)[C@H](C#CC(O)C3CCCCC3)[C@H]2C1 (stereo partly shown) [drawing 46] |  | 
4 | 12 nM | O=C(O)CCC/C=C1\C[C@H]2C[C@@H](O)[C@H](/C=C/[C@@H](O)C3CCCC3)[C@H]2C1 [OP-41483, reference compound] |  | 
5 | 4.5 nM | O=C(O)COCCC1=C[C@H]2C[C@@H](O)[C@H](C#CC(O)C3CCCCC3)[C@H]2C1 (stereo partly shown) [drawing 48] |  | 

From US4839388A, “Prostacyclins and pharmaceuticals containing the same” (Mitsubishi Chemical Industries Limited, priority 1985, dated 1989)
